Key:
[1] = test system: harmaline model of Essential Tremor; assay: Harmaline model of Essential Tremor, subjective tremor score 0-4 (Example 3; DS = DS-D); assay type: in vivo, rat; details: Propranolol 40 mg/kg i.p.
Experimental: All experiments were carried out in male Sprague Dawley rats (˜250 g). Naïve rats were acclimatised to the procedure room in their home cages up to 7 days following arrival at the test facility, with food and water available ad libitum. All animals were weighed at the beginning of the study and assigned to treatment groups (Vehicle n=6, treatment groups n=12/group).
Animals were dosed and tested as per Table G below, across 3 test days. Treatment groups were equally allocated across the 3 days of testing. The animals received either vehicle, DS at 30, 100 or 150 mg/kg (1 mL/kg, i.p.) or propranolol at 40 mg/kg (5 mL/kg, i.p.) (Compound 1), the animals were then dosed with vehicle or Harmaline at 10 mg/kg (5 mL/kg, i.p.) (Compound 2). The animals received DS at 30, 100 or 150 mg/kg (1 mL/kg, i.p.) 40 or 100 min before harmaline, with the first test point 20 mins later to give a pre-treatment time at first test point of 60 and 120 mins. Propanolol was dosed 30 min before harmaline and tested 20, 40 and 60 mins post-harmaline. At all test points post-harmaline, the animals were observed and given a tremor score of 0-4 (as per Table H).
Drug substance (i.e., DS-D, as described in Example 1) was formulated in 1:12:87 Ethanol, Kolliphor HS & Saline.
Propranolol (40 mg/kg i.p.) served as a disease-relevant comparator.
30 mg/kg drug substance required 1 hr pre-treatment whilst 100 and 150 mg/kg drug substance required 2 hr pre-treatment.
Behavioural observation data was analysed using a repeated measures two-way ANOVA followed by Dunnett's multiple comparison analysis (GraphPad, Prism v9.0.0) (p<0.05 considered significant).

[2] = test system: rat model of essential tremor; assay: Harmaline rat model of essential tremor, observed tremor score (Example 4); assay type: in vivo; set-up: key to Observed tremor score, significance vs harmaline + vehicle: ns = not significant; *, **, ***, **** = statistical significance at p < 0.05, 0.01, 0.001, 0.0001 respectively; *, **, ***, **** = statistical significance at p < 0.05, 0.01, 0.001, 0.0001 respectively; *, **, ***, **** = statistical significance at p < 0.05, 0.01, 0.001, 0.0001 respectively; *, **, ***, **** = statistical significance at p < 0.05, 0.01, 0.001, 0.0001 respectively; details: for Observed tremor score, significance vs harmaline + vehicle: I.P.
Text: (§1) The following study was designed to assess the drug substance (DS) efficacy in the rat model of essential tremor. Synthetic CBD (sCBD I.P.) and DS I.P. and DS. P.O and compared observing tremor score, motion power percentage (MPP), tremor index (TI), number of tremors, total time spent in tremor, and average tremor length.
(§2) The results are summarized in Tables J-M. All comparisons were made to the harmaline+vehicle group within each study.

[3] = test system: rat model of essential tremor; assay: Harmaline rat model of essential tremor, tremor plate: motion power percentage, tremor index, number of tremors, time in tremor, tremor length (Example 4); assay type: in vivo; set-up: key to Motion Power Percentage, significance vs harmaline + vehicle / Number of tremors, significance vs harmaline + vehicle / Total time in tremor, significance vs harmaline + vehicle / Average tremor length, significance vs harmaline + vehicle: ns = not significant; *, **, ***, **** = statistical significance at p < 0.05, 0.01, 0.001, 0.0001 respectively; *, **, ***, **** = statistical significance at p < 0.05, 0.01, 0.001, 0.0001 respectively; *, **, ***, **** = statistical significance at p < 0.05, 0.01, 0.001, 0.0001 respectively; *, **, ***, **** = statistical significance at p < 0.05, 0.01, 0.001, 0.0001 respectively; details: for Average tremor length, significance vs harmaline + vehicle / Number of tremors, significance vs harmaline + vehicle / Total time in tremor, significance vs harmaline + vehicle / Motion Power Percentage, significance vs harmaline + vehicle: I.P.
Text: as §1, §2

[4] = test system: valproic acid-induced autism spectrum disorder (ASD) mouse model; assay: Valproic acid-induced ASD model, autism-like behaviors, DS vs sCBD and risperidone (Example 6, Table P); assay type: in vivo; set-up: key to Adult open field hyperactivity (spontaneous LMA on day 1) / Adult open field hyperactivity (LMA on day 2) / Adult marble burying / Adult grooming / Juvenile vocalisation: +: improvement; Ø: no change; −: not tested
Text: (§3) The main objective of the following study was to assess the effect of the drug substance (DS) of Example 1 in ameliorating autism-like behavior in valproic acid-induced autism spectrum disorder (ASD) mouse model (FIGS. 19A-B).

[5] = test system: valproic acid-induced autism spectrum disorder (ASD) mouse model; assay: Valproic acid-induced ASD model, social behavior (Example 6, Table P); assay type: in vivo; set-up: key: +: improvement; Ø: no change; −: not tested
Text: as §3

[6] = test system: valproic acid-induced autism spectrum disorder (ASD) mouse model; assay: Valproic acid-induced ASD model, bottle-brush test (irritability) (Example 6, Table P); assay type: in vivo; set-up: key: +: improvement; Ø: no change; −: not tested
Text: as §3

## CC(C)NCC(O)COc1cccc2ccccc12 (centres unmarked) [Propranolol]
[1]; 20, 40 and 60 min post-harmaline
  deficits induced by harmaline vs vehicle/harmaline group: significantly attenuated
[1]; 20 mins post-harmaline
  Tremor Score (median ± IQR): 0.0 ± 0.0
[1]; 40 mins post-harmaline
  Tremor Score (median ± IQR): 0.0 ± 0.0
[1]; 60 mins post-harmaline
  Tremor Score (median ± IQR): 0.0 ± 0.75

## C=C(C)[C@@H]1CCC(C)=C[C@H]1c1c(O)cc(CCCCC)cc1O [sCBD, 2-[(1R,6R)-3-Methyl-6-(1-methylethenyl)-2-cyclohexen-1-yl]-5-pentyl-1,3-benzenediol]
[2]; DS oral and intraperitoneal, sCBD i.p.
  Minimum dose (as CBD) decreasing the observed tremor score: 27 mg/kg
[2]; dose 9.1 mg/kg, 20 min
  Observed tremor score, significance vs harmaline + vehicle: ns
[2]; dose 9.1 mg/kg, 40 min
  Observed tremor score, significance vs harmaline + vehicle: ns
[2]; dose 9.1 mg/kg, 60 min
  Observed tremor score, significance vs harmaline + vehicle: ns
[2]; dose 27.3 mg/kg, 20 min
  Observed tremor score, significance vs harmaline + vehicle: ns
[2]; dose 27.3 mg/kg, 40 min
  Observed tremor score, significance vs harmaline + vehicle: * (*, **, ***, **** = statistical significance at p < 0.05, 0.01, 0.001, 0.0001 respectively)
[2]; dose 27.3 mg/kg, 60 min
  Observed tremor score, significance vs harmaline + vehicle: * (*, **, ***, **** = statistical significance at p < 0.05, 0.01, 0.001, 0.0001 respectively)
[2]; dose 54.7 mg/kg, 20 min
  Observed tremor score, significance vs harmaline + vehicle: ** (*, **, ***, **** = statistical significance at p < 0.05, 0.01, 0.001, 0.0001 respectively)
[2]; dose 54.7 mg/kg, 40 min
  Observed tremor score, significance vs harmaline + vehicle: * (*, **, ***, **** = statistical significance at p < 0.05, 0.01, 0.001, 0.0001 respectively)
[2]; dose 54.7 mg/kg, 60 min
  Observed tremor score, significance vs harmaline + vehicle: * (*, **, ***, **** = statistical significance at p < 0.05, 0.01, 0.001, 0.0001 respectively)
[2]; dose 91.1 mg/kg, 20 min
  Observed tremor score, significance vs harmaline + vehicle: * (*, **, ***, **** = statistical significance at p < 0.05, 0.01, 0.001, 0.0001 respectively)
[2]; dose 91.1 mg/kg, 40 min
  Observed tremor score, significance vs harmaline + vehicle: ns
[2]; dose 91.1 mg/kg, 60 min
  Observed tremor score, significance vs harmaline + vehicle: ns
[3]; dose 9.1 mg/kg
  Average tremor length, significance vs harmaline + vehicle: ns
  Number of tremors, significance vs harmaline + vehicle: ns
  Total time in tremor, significance vs harmaline + vehicle: ns
[3]; dose 9.1 mg/kg, 20 min
  Motion Power Percentage, significance vs harmaline + vehicle: ns
[3]; dose 9.1 mg/kg, 40 min
  Motion Power Percentage, significance vs harmaline + vehicle: ns
[3]; dose 9.1 mg/kg, 60 min
  Motion Power Percentage, significance vs harmaline + vehicle: ns
[3]; dose 27.3 mg/kg
  Average tremor length, significance vs harmaline + vehicle: ns
  Number of tremors, significance vs harmaline + vehicle: ns
  Total time in tremor, significance vs harmaline + vehicle: ns
[3]; dose 27.3 mg/kg, 20 min
  Motion Power Percentage, significance vs harmaline + vehicle: ns
[3]; dose 27.3 mg/kg, 40 min
  Motion Power Percentage, significance vs harmaline + vehicle: ns
[3]; dose 27.3 mg/kg, 60 min
  Motion Power Percentage, significance vs harmaline + vehicle: ns
[3]; dose 54.7 mg/kg
  Average tremor length, significance vs harmaline + vehicle: ns
  Number of tremors, significance vs harmaline + vehicle: ns
  Total time in tremor, significance vs harmaline + vehicle: ns
[3]; dose 54.7 mg/kg, 20 min
  Motion Power Percentage, significance vs harmaline + vehicle: ns
[3]; dose 54.7 mg/kg, 40 min
  Motion Power Percentage, significance vs harmaline + vehicle: ns
[3]; dose 54.7 mg/kg, 60 min
  Motion Power Percentage, significance vs harmaline + vehicle: ns
[3]; dose 91.1 mg/kg
  Average tremor length, significance vs harmaline + vehicle: ns
  Number of tremors, significance vs harmaline + vehicle: ns
  Total time in tremor, significance vs harmaline + vehicle: ns
[3]; dose 91.1 mg/kg, 20 min
  Motion Power Percentage, significance vs harmaline + vehicle: ns
[3]; dose 91.1 mg/kg, 40 min
  Motion Power Percentage, significance vs harmaline + vehicle: ns
[3]; dose 91.1 mg/kg, 60 min
  Motion Power Percentage, significance vs harmaline + vehicle: * (*, **, ***, **** = statistical significance at p < 0.05, 0.01, 0.001, 0.0001 respectively)
[3]; intraperitoneal, sCBD only at one time point (60 min)
  Dose (as CBD) from which MPP and TI were significantly reduced: 91 mg/kg
[4]; 9.21 mg/kg I.P.
  Adult grooming: +
  Adult marble burying: Ø
  Adult open field hyperactivity (LMA on day 2): Ø
  Adult open field hyperactivity (spontaneous LMA on day 1): +
[4]; 27.63 mg/kg I.P.
  Adult grooming: +
  Adult marble burying: +
  Adult open field hyperactivity (LMA on day 2): +
  Adult open field hyperactivity (spontaneous LMA on day 1): +
[4]; 92.11 mg/kg I.P.
  Adult grooming: +
  Adult marble burying: +
  Adult open field hyperactivity (LMA on day 2): +
  Adult open field hyperactivity (spontaneous LMA on day 1): +
  Juvenile vocalisation: +
[4]; i.p.
  minimum effective dose in social behavior and after the bottle-brush test (irritability): 92.11 mg/kg
[5]; 9.21 mg/kg I.P.
  Adult active social behavior: Ø
  Juvenile play behavior: Ø
[5]; 27.63 mg/kg I.P.
  Adult active social behavior: Ø
  Juvenile play behavior: Ø
[5]; 92.11 mg/kg I.P.
  Adult active social behavior: +
  Juvenile play behavior: +
[6]; 9.21 mg/kg I.P.
  Adult bottle brush irritability test: Ø
  Juvenile bottle brush irritability test: Ø
[6]; 27.63 mg/kg I.P.
  Adult bottle brush irritability test: Ø
  Juvenile bottle brush irritability test: +
[6]; 92.11 mg/kg I.P.
  Adult bottle brush irritability test: +
  Juvenile bottle brush irritability test: +
